Patent US12054562B2, “Cell-permeable inhibitory agent and methods of use thereof in treatment of cognitive and mood disorders” (priority 2015, dated 2024)

Target: T1, gephyrin and α5 subunit interaction (Mus musculus, UniProt Q8BUV3)
T1 construct: from tissue; host or cells: hippocampus of adult mice
T1 sequence (Q8BUV3 1-769): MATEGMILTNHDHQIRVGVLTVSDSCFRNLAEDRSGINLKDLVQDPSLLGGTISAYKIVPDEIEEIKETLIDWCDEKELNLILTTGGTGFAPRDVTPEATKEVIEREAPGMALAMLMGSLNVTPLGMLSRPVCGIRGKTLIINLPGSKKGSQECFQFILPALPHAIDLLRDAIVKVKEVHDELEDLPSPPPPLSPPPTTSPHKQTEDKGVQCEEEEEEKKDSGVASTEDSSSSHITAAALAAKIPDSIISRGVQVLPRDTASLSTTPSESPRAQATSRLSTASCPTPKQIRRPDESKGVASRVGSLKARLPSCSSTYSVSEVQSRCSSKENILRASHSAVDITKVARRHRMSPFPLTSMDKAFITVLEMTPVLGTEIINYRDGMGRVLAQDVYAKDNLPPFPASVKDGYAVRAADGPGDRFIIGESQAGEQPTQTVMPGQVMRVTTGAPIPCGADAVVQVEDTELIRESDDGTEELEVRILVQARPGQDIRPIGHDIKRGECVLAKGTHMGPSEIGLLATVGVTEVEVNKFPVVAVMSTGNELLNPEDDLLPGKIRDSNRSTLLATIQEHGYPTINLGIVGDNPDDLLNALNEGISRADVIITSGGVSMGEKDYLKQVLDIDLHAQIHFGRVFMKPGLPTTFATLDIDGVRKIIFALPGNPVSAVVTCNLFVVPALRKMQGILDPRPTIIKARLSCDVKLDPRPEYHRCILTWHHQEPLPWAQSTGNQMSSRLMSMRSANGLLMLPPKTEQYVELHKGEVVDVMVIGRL
Assay: Co-IP and WB of gephyrin and α5 subunit interaction
Format: binding
Conditions: immunoprecipitates from Example 1, hippocampal tissue
Protocol: For the immunoprecipitation experiment, the tissue lysate containing […] protein (in 250 μl) was incubated with 20 μM (20 μl) of either the inhibitory peptide (SEQ ID NO:1) or scramble peptide (SEQ ID NO:5) without TAT sequence. One hour following the incubation, the antibodies (2-4 μg) against either α5 subunit (cat #sc—31417, Santa Cruz Biotechnology, Inc., 10410 Finnell St. Dallas, TX, 75220, USA) or radixin (cat #ab91312, Abcam Inc., c/o 913860, PO Box 4090 Stn A, Toronto, ON M5W 0E9), or 4 μg of non-specific IgG protein (cat #sc—2028, Santa Cruz Biotechnology, Inc., 10410 Finnell St. Dallas, TX, 75220, USA), were added to the lysate solution. After gently shaking overnight at 4° C., the immune complexes were precipitated with protein A/G plus-agarose beads (Santa Cruz Biotechnology, Inc., 10410 Finnell St. Dallas, TX, 75220, USA). Forty microliters of the A/G plus agarose beads were added to the immune complex solution and shaking gently for 2 h at 4° C. After spin with the microcentrifuge (Eppendorf Mini-Spin Plus, Marshall Scientific, 424 Route 125, Brentwood, NH 03833, USA), the immunoprecipitates were washed four times with ice-cold PBS, then resuspended in 2× Laemmli sample loading buffer containing 5% […], and boiled for 5 min. These samples were subjected to Western blot experiment. […]

NYFTKRGWAWDGKKAL [inhibitory peptide]
gephyrin and α5 subunit interaction: did not interfere
